According to ChEMBL document CHEMBL4808208, “Hepatoselective Dihydroquinolizinone Bis-acids for HBsAg mRNA Degradation” (ACS Med Chem Lett, 2021):
“And” between values parts separate entries of the source, which are not always exact repeats. Equal values may be shown once.

Key:
[1] = Drug concentration in CD-1 mouse liver at 8 mg/kg, po measured after 8 hrs by LC-MS/MS analysis; type: ADME, organism-based; conditions: read-out: Ct
Cytochrome P450 2B6 = biological target: T1, Cytochrome P450 2B6 (Homo sapiens, UniProt P20813); test: Inhibition of CYP2B6 in human liver microsomes using bupropion as substrate preincubated for 5 mins followed by NADPH addition by LC-MS/MS analysis; type: ADME
T1 sequence (P20813 whole entry): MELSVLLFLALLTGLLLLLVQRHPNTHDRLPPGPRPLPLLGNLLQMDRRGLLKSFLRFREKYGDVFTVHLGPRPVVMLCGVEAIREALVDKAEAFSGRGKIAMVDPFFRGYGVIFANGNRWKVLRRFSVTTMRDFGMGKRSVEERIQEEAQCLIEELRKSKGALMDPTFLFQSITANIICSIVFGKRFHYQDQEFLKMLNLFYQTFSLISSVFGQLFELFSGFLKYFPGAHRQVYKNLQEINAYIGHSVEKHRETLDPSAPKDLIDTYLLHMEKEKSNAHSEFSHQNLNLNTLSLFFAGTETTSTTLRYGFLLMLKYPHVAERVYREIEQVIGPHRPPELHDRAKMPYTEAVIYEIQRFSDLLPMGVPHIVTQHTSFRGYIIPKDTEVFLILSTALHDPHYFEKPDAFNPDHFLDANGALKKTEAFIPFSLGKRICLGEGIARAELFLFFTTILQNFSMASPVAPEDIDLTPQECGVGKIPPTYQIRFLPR

[2] = Efflux ratio of apparent permeability in MDCK-MDR1 cells at 1 uM after 120 mins by LC-MS/MS analysis; type: ADME, cell-based, Canis lupus familiaris; conditions: dog
[3] = Half life in CD-1 mouse plasma at 3 mg/kg, iv measured for 24 hrs by LC-MS/MS analysis; type: ADME, organism-based
[4] = Ratio of AUC(last) in liver to plasma in CD-1 mouse at 8 mg/kg, po by LC-MS/MS analysis; type: ADME, organism-based
[5] = Metabolic stability in mouse liver microsomes assessed as clearance preincubated with compound for 10 mins followed by NADPH regenerating system addition and measured per mg protein for 60 mins by LC/MS-MS analysis; type: ADME, Microsome; conditions: time 70 min, read-out: CLH
OATP1B1 = test: Ratio of drug uptake in HEK293 cells transfected with OATP1B1 (unknown origin) in absence of transporter inhibitor, estradiol-17beta-glucuronide to drug uptake in HEK293 cells in absence of transporter inhibitor, estradiol-17beta-glucuronide by LC-MS/MS analysis; type: ADME, cell-based; conditions: human, HEK293 cells transfected with OATP1B1 versus HEK293 cells
Cytochrome P450 2D6 = Cytochrome P450 2D6 (Homo sapiens, UniProt P10635); test: Inhibition of CYP2D6 in human liver microsomes using dextromethorphan as substrate preincubated for 5 mins followed by NADPH addition by LC-MS/MS analysis; type: ADME
[6] = Cytotoxicity against human HepG2.2.15 cells assessed as reduction in cell viability measured after 4 days by CellTiter-Glo reagent based assay; design: species or system HepG2 2.2.15; conditions: time 4 day
[7] = Drug concentration in CD-1 mouse liver at 8 mg/kg, po measured after 1 hr by LC-MS/MS analysis; type: ADME, organism-based; conditions: read-out: Ct
Cytochrome P450 3A4 = Cytochrome P450 3A4 (Homo sapiens, UniProt P08684); test: Inhibition of CYP3A4 in human liver microsomes using midazolam as substrate preincubated for 5 mins followed by NADPH addition by LC-MS/MS analysis; type: ADME
[8] = Apparent permeability of the compound across basolateral to apical side in human Caco-2 cells at 10 uM incubated for 1 hr; type: ADME, cell-based
Hepatitis B virus = test: Antiviral activity against Hepatitis B virus infected in human HepG2.2.15 cells assessed as reduction in HBsAg level measured after 4 days by AlphaLisa assay; type: functional, organism-based; conditions: HepG2.2.15, 96 h
Cytochrome P450 2E1 = Cytochrome P450 2E1 (Homo sapiens, UniProt P05181); test: Inhibition of CYP2E1 in human liver microsomes using chlorzoxazone as substrate preincubated for 5 mins followed by NADPH addition by LC-MS/MS analysis; type: ADME
[9] = Cmax in CD-1 mouse plasma at 8 mg/kg, po measured for 24 hrs by LC-MS/MS analysis; type: ADME, organism-based; design: route oral, dose 8 mg/kg, time 24 hrs
[10] = Drug concentration in CD-1 mouse liver at 8 mg/kg, po measured after 2 hrs by LC-MS/MS analysis; type: ADME, organism-based; conditions: read-out: Ct
[11] = AUC (last) in CD-1 mouse plasma at 8 mg/kg, po measured for 24 hrs by LC-MS/MS analysis; type: ADME, organism-based; design: route oral, dose 8 mg/kg, time 24 hrs
[12] = Apparent permeability of the compound across apical to basolateral side in human Caco-2 cells at 10 uM incubated for 1 hr; type: ADME, cell-based
[13] = Efflux ratio of apparent permeability in human Caco-2 cells at 10 uM incubated for 1 hr; type: ADME, cell-based
[14] = Apparent permeability across basolateral to apical side in MDCK-MDR1 cells at 1 uM measured after 120 mins by LC-MS/MS analysis; type: ADME, cell-based, Canis lupus familiaris; conditions: dog
Cytochrome P450 2A6 = biological target: T2, Cytochrome P450 2A6 (Homo sapiens, UniProt P11509); test: Inhibition of CYP2A6 in human liver microsomes using coumarin as substrate preincubated for 5 mins followed by NADPH addition by LC-MS/MS analysis; type: ADME
T2 sequence (P11509 whole entry): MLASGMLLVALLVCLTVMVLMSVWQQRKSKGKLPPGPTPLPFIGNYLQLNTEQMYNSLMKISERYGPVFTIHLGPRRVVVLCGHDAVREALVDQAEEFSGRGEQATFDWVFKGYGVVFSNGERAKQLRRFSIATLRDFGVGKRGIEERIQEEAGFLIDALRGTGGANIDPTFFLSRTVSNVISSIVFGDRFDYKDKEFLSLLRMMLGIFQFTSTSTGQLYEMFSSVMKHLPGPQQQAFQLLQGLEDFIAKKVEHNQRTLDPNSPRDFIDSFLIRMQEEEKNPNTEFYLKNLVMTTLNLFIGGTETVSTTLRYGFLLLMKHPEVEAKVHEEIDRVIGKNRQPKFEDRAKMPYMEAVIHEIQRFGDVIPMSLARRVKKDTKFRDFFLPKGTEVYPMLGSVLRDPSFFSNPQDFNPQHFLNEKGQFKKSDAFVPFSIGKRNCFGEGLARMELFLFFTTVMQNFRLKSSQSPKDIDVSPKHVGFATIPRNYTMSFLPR

[15] = Clearance in CD-1 mouse at 3 mg/kg, iv measured for 24 hrs by LC-MS/MS analysis; type: ADME, organism-based; conditions: in vivo
[16] = 1-Octanol/saturated PBS buffer distribution coefficient, logD of the compound incubated for 1 hr by LC-MS/MS analysis; type: physicochemical
[17] = Apparent permeability across apical to basolateral side in MDCK-MDR1 cells at 1 uM measured after 120 mins by LC-MS/MS analysis; type: ADME, cell-based, Canis lupus familiaris; conditions: dog
[18] = AUC (last) in CD-1 mouse liver at 8 mg/kg, po measured for 24 hrs by LC-MS/MS analysis; type: ADME, organism-based; design: route oral, time 24 hrs, dose 8 mg/kg

Cytochrome P450 2E1, sequence (P05181 whole entry): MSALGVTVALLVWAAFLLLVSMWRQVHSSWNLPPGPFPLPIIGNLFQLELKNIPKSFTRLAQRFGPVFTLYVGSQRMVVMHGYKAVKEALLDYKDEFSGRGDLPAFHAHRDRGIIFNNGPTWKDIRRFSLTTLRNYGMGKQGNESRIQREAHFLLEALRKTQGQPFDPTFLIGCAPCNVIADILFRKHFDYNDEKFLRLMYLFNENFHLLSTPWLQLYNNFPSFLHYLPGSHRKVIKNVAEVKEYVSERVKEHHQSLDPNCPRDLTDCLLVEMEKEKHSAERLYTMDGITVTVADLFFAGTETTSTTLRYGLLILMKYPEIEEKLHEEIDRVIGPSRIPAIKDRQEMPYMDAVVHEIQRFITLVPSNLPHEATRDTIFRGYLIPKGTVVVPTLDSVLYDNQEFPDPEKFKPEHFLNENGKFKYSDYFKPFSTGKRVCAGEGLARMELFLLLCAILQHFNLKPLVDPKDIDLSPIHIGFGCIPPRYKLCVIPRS
Cytochrome P450 3A4, sequence (P08684 whole entry): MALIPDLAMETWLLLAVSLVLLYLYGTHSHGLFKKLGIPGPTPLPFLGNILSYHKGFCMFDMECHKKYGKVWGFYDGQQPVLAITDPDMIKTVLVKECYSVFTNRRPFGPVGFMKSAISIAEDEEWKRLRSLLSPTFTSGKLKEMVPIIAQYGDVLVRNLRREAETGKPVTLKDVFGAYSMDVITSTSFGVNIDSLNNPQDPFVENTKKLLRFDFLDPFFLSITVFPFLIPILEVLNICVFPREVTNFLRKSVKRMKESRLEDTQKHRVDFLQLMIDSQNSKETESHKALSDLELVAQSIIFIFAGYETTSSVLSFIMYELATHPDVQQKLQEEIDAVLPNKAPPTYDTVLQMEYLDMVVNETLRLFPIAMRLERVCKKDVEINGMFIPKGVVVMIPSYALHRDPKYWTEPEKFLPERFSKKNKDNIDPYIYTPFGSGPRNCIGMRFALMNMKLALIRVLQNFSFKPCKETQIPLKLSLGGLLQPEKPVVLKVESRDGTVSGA
Cytochrome P450 2D6, sequence (P10635 whole entry): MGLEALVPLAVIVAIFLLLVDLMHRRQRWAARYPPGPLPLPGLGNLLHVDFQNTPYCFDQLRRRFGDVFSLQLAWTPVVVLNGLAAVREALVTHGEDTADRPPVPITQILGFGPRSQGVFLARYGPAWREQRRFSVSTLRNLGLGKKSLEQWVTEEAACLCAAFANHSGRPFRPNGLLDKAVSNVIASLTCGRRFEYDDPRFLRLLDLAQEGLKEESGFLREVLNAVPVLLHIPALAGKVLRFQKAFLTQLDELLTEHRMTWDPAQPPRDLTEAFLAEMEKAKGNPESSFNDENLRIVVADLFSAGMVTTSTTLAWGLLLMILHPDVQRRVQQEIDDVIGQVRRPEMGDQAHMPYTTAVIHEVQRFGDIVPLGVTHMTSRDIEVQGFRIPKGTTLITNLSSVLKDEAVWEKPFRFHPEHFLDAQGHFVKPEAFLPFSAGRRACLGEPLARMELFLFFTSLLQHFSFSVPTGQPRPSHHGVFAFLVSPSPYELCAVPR

## COc1cc2c(cc1OCCCCCCC(=O)O)C[C@@H](C(C)C)n1cc(C(=O)O)c(=O)cc1-2
[1]
  concentration at 8 h: 63 ng/mL and 140 nM
Cytochrome P450 2B6
  IC50: > 10 µM
[2]
  efflux ratio at 2 h, 1 µM: 1.47
[3]
  half-life: 1.48 h
[4]
  Kp: 37.7
[5]
  microsomal CLint: 0.8 µL/min/mg
OATP1B1
  uptake ratio: 19
Cytochrome P450 2D6
  IC50: > 10 µM
[6]
  CC50 at 96 h: > 10 µM
[7]
  concentration at 1 h: 300 ng/mL and 660 nM
Cytochrome P450 3A4
  IC50: > 10 µM
[8]
  Papp B→A at 1 h, 10 µM: 2.06 ×10⁻⁶ cm/s
Hepatitis B virus
  EC50: 0.023 µM
Cytochrome P450 2E1
  IC50: > 10 µM
[9]
  Cmax: 16.1 ng/mL
[10]
  concentration at 2 h: 261 ng/mL and 570 nM
[11]
  AUC(0-t) at 24 h: 34.7 ng·h/mL
[12]
  Papp A→B at 1 h, 10 µM: 0.39 ×10⁻⁶ cm/s
[13]
  efflux ratio at 1 h, 10 µM: 5.3
[14]
  Papp B→A at 2 h, 1 µM: 0.55 ×10⁻⁶ cm/s
Cytochrome P450 2A6
  IC50: > 10 µM
[15]
  clearance: 198 mL/min/kg
[16]
  logD at 1 h: -0.65
[17]
  Papp A→B at 2 h, 1 µM: 0.38 ×10⁻⁶ cm/s
[18]
  AUC(0-t) at 24 h: 1310 ng·h/mL
